Read-outs that look alike come from different tables or passages of the source.
Details: rcm bond, DCE

CC(C)(C)OC(=O)Nc1cc(C(F)(F)F)c2nc1-c1nnc(o1)C(OCc1ccccc1)(C(F)(F)F)CCC=CCC1CCCN21 (mixture of isomers)
ring closure, isolated yield (from C=CCCC(OCc1ccccc1)(c1nnc(-c2nc(N3CCCC3CC=C)c(C(F)(F)F)cc2NC(=O)OC(C)(C)C)o1)C(F)(F)F, 14-membered ring, Grubbs II (21 mol%), 15.2 mM, 80.0 °C, 0.75 h): 84%

CC(C)(C)OC(=O)Nc1cc(C(F)(F)F)c2nc1-c1nnc(o1)C(OCc1ccccc1)(C(F)(F)F)CCC=CC[C@@H]1CCCN21 (mixture of isomers)
ring closure, isolated yield (from C=CCCC(OCc1ccccc1)(c1nnc(-c2nc(N3CCC[C@H]3CC=C)c(C(F)(F)F)cc2NC(=O)OC(C)(C)C)o1)C(F)(F)F, 14-membered ring, Zhan-1B (two charges), 7.07 mM, 70.0 °C, 20.0 h): 61%

CC(C)(C)OC(=O)Nc1cc(C(F)(F)F)c2nc1-c1nnc(o1)C(OCc1ccccc1)(C(F)(F)F)CCC=CC[C@@H]1COCC(=O)N21 (mixture of isomers)
ring closure, isolated yield (from C=CCCC(OCc1ccccc1)(c1nnc(-c2nc(N3C(=O)COC[C@H]3CC=C)c(C(F)(F)F)cc2NC(=O)OC(C)(C)C)o1)C(F)(F)F, 14-membered ring, Zhan-1B, 3.35 mM, 75.0 °C, 4.0 h): 73%

CC(C)(C)OC(=O)Nc1cc(C(F)(F)F)c2nc1-c1nnc(o1)C(OCc1ccccc1)CCC=CC[C@@H]1CCCN21 (mixture of isomers)
ring closure, isolated yield (from C=CCCC(OCc1ccccc1)c1nnc(-c2nc(N3CCC[C@H]3CC=C)c(C(F)(F)F)cc2NC(=O)OC(C)(C)C)o1, 14-membered ring, Zhan-1B (15 mol%), 6.77 mM, 70.0 °C, 20.0 h): 6%

CC(C)C1CCC=CC[C@](OCc2ccccc2)(C(F)(F)F)C2=NN=C(O2)c2nc(c(C(F)(F)F)cc2[N+](=O)[O-])N1 (mixture of isomers)
ring closure, isolated yield (from C=CCCC(Nc1nc(-c2nnc([C@@](CC=C)(OCc3ccccc3)C(F)(F)F)o2)c([N+](=O)[O-])cc1C(F)(F)F)C(C)C, 14-membered ring, Zhan catalyst-1B, 15.4 mM, 70.0 °C): 47%

CC(C)N1CCC=CCCC(OCc2ccccc2)(C(F)(F)F)C2=NN=C(O2)c2nc1c(C(F)(F)F)cc2[N+](=O)[O-] (mixture of isomers)
ring closure, isolated yield (from C=CCCN(c1nc(-c2nnc(C(CCC=C)(OCc3ccccc3)C(F)(F)F)o2)c([N+](=O)[O-])cc1C(F)(F)F)C(C)C, 14-membered ring, Zhan-1B, 2.53 mM, 75.0 °C, 3.0 h): 84%

CC1CC=CCCC(OCc2ccccc2)(C(F)(F)F)C2=NN=C(O2)c2nc(c(C(F)(F)F)cc2[N+](=O)[O-])N1 (mixture of isomers)
ring closure, isolated yield (from C=CCCC(OCc1ccccc1)(c1nnc(-c2nc(NC(C)CC=C)c(C(F)(F)F)cc2[N+](=O)[O-])o1)C(F)(F)F, 14-membered ring, Zhan-1B, 1.85 mM, 75.0 °C, 3.0 h): 61%

CCOC(=O)C1CC=CCCC(OCc2ccccc2)(C(F)(F)F)C2=NN=C(O2)c2nc(c(C(F)(F)F)cc2[N+](=O)[O-])N1 (mixture of isomers)
ring closure, isolated yield (from C=CCCC(OCc1ccccc1)(c1nnc(-c2nc(NC(CC=C)C(=O)OCC)c(C(F)(F)F)cc2[N+](=O)[O-])o1)C(F)(F)F, 14-membered ring, Zhan catalyst-1B, 3.41 mM, 75.0 °C, 2.0 h): 36%

CCOC(=O)C1CCC=CCC(OCc2ccccc2)(C(F)(F)F)C2=NN=C(O2)c2nc(c(C(F)(F)F)cc2[N+](=O)[O-])N1 (mixture of isomers)
ring closure, isolated yield (from C=CCCC(Nc1nc(-c2nnc(C(CC=C)(OCc3ccccc3)C(F)(F)F)o2)c([N+](=O)[O-])cc1C(F)(F)F)C(=O)OCC, 14-membered ring, Zhan-1B, 2.96 mM, 75.0 °C, 2.0 h): 82%

CCOC(=O)CN1CCC=CCCC(OCc2ccccc2)(C(F)(F)F)C2=NN=C(O2)c2nc1c(C(F)(F)F)cc2N(C(=O)OC(C)(C)C)C(=O)OC(C)(C)C (mixture of isomers)
ring closure, isolated yield (from C=CCCN(CC(=O)OCC)c1nc(-c2nnc(C(CCC=C)(OCc3ccccc3)C(F)(F)F)o2)c(N(C(=O)OC(C)(C)C)C(=O)OC(C)(C)C)cc1C(F)(F)F, 14-membered ring, Zhan-1B, 2.3 mM, 75.0 °C, 2.0 h): 92%

CN1CCC=CCCC(OCc2ccccc2)(C(F)(F)F)C2=NN=C(O2)c2nc1c(C(F)(F)F)cc2NC(=O)OC(C)(C)C (mixture of isomers)
ring closure, isolated yield (from C=CCCN(C)c1nc(-c2nnc(C(CCC=C)(OCc3ccccc3)C(F)(F)F)o2)c(NC(=O)OC(C)(C)C)cc1C(F)(F)F, 14-membered ring, Zhan-1B (15 mol%), 6.34 mM, 70.0 °C, 2.0 h): 76%

CN1CCC=CCCC(OCc2ccccc2)(C(F)(F)F)C2=NN=C(O2)c2nc1c(S(C)(=O)=O)cc2NC(=O)OC(C)(C)C (mixture of isomers)
ring closure, isolated yield (from C=CCCN(C)c1nc(-c2nnc(C(CCC=C)(OCc3ccccc3)C(F)(F)F)o2)c(NC(=O)OC(C)(C)C)cc1S(C)(=O)=O, 14-membered ring, Zhan-1B (two charges), 4.01 mM, 70.0 °C, 14.0 h): 41%

COCC1CCC=CC[C@](OCc2ccccc2)(C(F)(F)F)C2=NN=C(O2)c2nc(c(C(F)(F)F)cc2[N+](=O)[O-])N1 (mixture of isomers)
ring closure, isolated yield (from C=CCCC(COC)Nc1nc(-c2nnc([C@@](CC=C)(OCc3ccccc3)C(F)(F)F)o2)c([N+](=O)[O-])cc1C(F)(F)F, 14-membered ring, Zhan catalyst-1B, 3.15 mM, 60.0 °C, 5.75 h): 48%

COCCN1CCC=CCCC(OCc2ccccc2)(C(F)(F)F)C2=NN=C(O2)c2nc1c(C(F)(F)F)cc2NC(=O)OC(C)(C)C (mixture of isomers)
ring closure, isolated yield (from C=CCCN(CCOC)c1nc(-c2nnc(C(CCC=C)(OCc3ccccc3)C(F)(F)F)o2)c(NC(=O)OC(C)(C)C)cc1C(F)(F)F, 14-membered ring, Zhan-1B (19 mol%), 3.22 mM, 70.0 °C, 3.0 h): 60%

COc1cc2nc(c1[N+](=O)[O-])-c1nnc(o1)C(OCc1ccccc1)(C(F)(F)F)CCC=CC[C@@H]1CCCN21 (mixture of isomers)
ring closure, isolated yield (from C=CCCC(OCc1ccccc1)(c1nnc(-c2nc(N3CCC[C@H]3CC=C)cc(OC)c2[N+](=O)[O-])o1)C(F)(F)F, 14-membered ring, Zhan catalyst-1B, 6.85 mM, 70.0 °C, 5.0 h): 29%

O=C1NNC(=O)[C@@](OCc2ccccc2)(C(F)(F)F)CCC=CCC2(CCCCC2)Nc2nc1c([N+](=O)[O-])cc2C(F)(F)F (mixture of isomers)
ring closure, isolated yield (from C=CCC[C@@](OCc1ccccc1)(C(=O)NNC(=O)c1nc(NC2(CC=C)CCCCC2)c(C(F)(F)F)cc1[N+](=O)[O-])C(F)(F)F, 15-membered ring, Zhan catalyst-1B, 4.99 mM, 60.0 °C, 2.0 h): 70%

O=[N+]([O-])c1cc(C(F)(F)F)c2nc1-c1nnc(o1)C(OCc1ccccc1)(C(F)(F)F)CCC=CCC1CCS(=O)(=O)N21 (mixture of isomers)
ring closure, isolated yield (from C=CCCC(OCc1ccccc1)(c1nnc(-c2nc(N3C(CC=C)CCS3(=O)=O)c(C(F)(F)F)cc2[N+](=O)[O-])o1)C(F)(F)F, 14-membered ring, Zhan-1B, 4.72 mM, 75.0 °C, 6.0 h): 19%

O=[N+]([O-])c1cc(C(F)(F)F)c2nc1-c1nnc(o1)C(OCc1ccccc1)(C(F)(F)F)CCC=CCCN2CCOCc1ccccc1 (mixture of isomers)
ring closure, isolated yield (from C=CCCN(CCOCc1ccccc1)c1nc(-c2nnc(C(CCC=C)(OCc3ccccc3)C(F)(F)F)o2)c([N+](=O)[O-])cc1C(F)(F)F, 14-membered ring, Zhan-1B (25 mol%), 2.75 mM, 75.0 °C, 2.0 h): 59%

O=[N+]([O-])c1cc(C(F)(F)F)c2nc1-c1nnc(o1)C(OCc1ccccc1)(C(F)(F)F)CCC=CCCN2Cc1ccccc1 (mixture of isomers)
ring closure, isolated yield (from C=CCCN(Cc1ccccc1)c1nc(-c2nnc(C(CCC=C)(OCc3ccccc3)C(F)(F)F)o2)c([N+](=O)[O-])cc1C(F)(F)F, 14-membered ring, Zhan-1B, 1.77 mM, 75.0 °C, 3.0 h): 68%

O=[N+]([O-])c1cc(C(F)(F)F)c2nc1-c1nnc(o1)C(OCc1ccccc1)(C(F)(F)F)CCC=CC[C@@H]1COCCN21 (mixture of isomers)
ring closure, isolated yield (from C=CCCC(OCc1ccccc1)(c1nnc(-c2nc(N3CCOC[C@H]3CC=C)c(C(F)(F)F)cc2[N+](=O)[O-])o1)C(F)(F)F, 14-membered ring, Zhan-1B, 15.9 mM, 70.0 °C, 3.5 h): 56%

O=[N+]([O-])c1cc(C(F)(F)F)c2nc1-c1nnc(o1)[C@@](OCc1ccccc1)(C(F)(F)F)CC=CCCC(c1ncco1)N2 (mixture of isomers)
ring closure, isolated yield (from C=CCCC(Nc1nc(-c2nnc([C@@](CC=C)(OCc3ccccc3)C(F)(F)F)o2)c([N+](=O)[O-])cc1C(F)(F)F)c1ncco1, 14-membered ring, Zhan catalyst-1B, 2.9 mM, 70.0 °C, 4.25 h): 46%

O=[N+]([O-])c1cc(C(F)(F)F)c2nc1-c1nnc(o1)[C@@](OCc1ccccc1)(C(F)(F)F)CCC=CCC1(CCC1)N2 (mixture of isomers)
ring closure, isolated yield (from C=CCC[C@@](OCc1ccccc1)(c1nnc(-c2nc(NC3(CC=C)CCC3)c(C(F)(F)F)cc2[N+](=O)[O-])o1)C(F)(F)F, 14-membered ring, Zhan catalyst-1B, 3.27 mM, 85.0 °C, 5.0 h): 68%

O=[N+]([O-])c1cc(C(F)(F)F)c2nc1-c1nnc(o1)[C@@](OCc1ccccc1)(C(F)(F)F)CCC=CCC1(CCCC1)N2 (mixture of isomers)
ring closure, isolated yield (from C=CCC[C@@](OCc1ccccc1)(c1nnc(-c2nc(NC3(CC=C)CCCC3)c(C(F)(F)F)cc2[N+](=O)[O-])o1)C(F)(F)F, 14-membered ring, Zhan catalyst-1B, 6.3 mM, 70.0 °C, 2.5 h): 27%

O=[N+]([O-])c1cc(C(F)(F)F)c2nc1-c1nnc(o1)[C@@](OCc1ccccc1)(C(F)(F)F)CCC=CCC1(CCOC1)N2 (mixture of isomers)
ring closure, isolated yield (from C=CCC[C@@](OCc1ccccc1)(c1nnc(-c2nc(NC3(CC=C)CCOC3)c(C(F)(F)F)cc2[N+](=O)[O-])o1)C(F)(F)F, 14-membered ring, Zhan catalyst-1B, 3.17 mM, 60.0 °C, 3.75 h): 82%

O=[N+]([O-])c1cc(C(F)(F)F)c2nc1-c1nnc(o1)[C@@](OCc1ccccc1)(C(F)(F)F)CCC=CCC1(CCOCC1)N2 (mixture of isomers)
ring closure, isolated yield (from C=CCC[C@@](OCc1ccccc1)(c1nnc(-c2nc(NC3(CC=C)CCOCC3)c(C(F)(F)F)cc2[N+](=O)[O-])o1)C(F)(F)F, 14-membered ring, Zhan catalyst-1B, 3.13 mM, 60.0 °C, 3.75 h): 80%

O=[N+]([O-])c1cc(Cl)c2nc1-c1nnc(o1)C(OCc1ccccc1)(C(F)(F)F)CCC=CC[C@@H]1CCCN21 (mixture of isomers)
ring closure, isolated yield (from C=CCCC(OCc1ccccc1)(c1nnc(-c2nc(N3CCC[C@H]3CC=C)c(Br)cc2[N+](=O)[O-])o1)C(F)(F)F, 14-membered ring, Zhan-1B, 5.74 mM, 70.0 °C, 3.0 h): 73%

— US12324802B2, “Modulators of cystic fibrosis transmembrane conductance regulator” (Vertex Pharmaceuticals Incorporated, priority 2020, dated 2025)
